# Test system: myostatin gene expression in C2C12 cells
# Assay: Inhibition of myostatin expression in C2C12 cells (qPCR)
# Assay type: cell-based
# Conditions: Mus musculus, percentage myostatin gene expression in cells in contact with the compounds related to control cells, C2C12, 6 h
# Procedure: After several experiments in which the C2C12 cells differentiated into myotubes were incubated in the presence of IGF-1 or 20E for 2 h 30 or 6 h, two screening tests were developed. Thus, the phosphorylation of the S6 protein kinase and the expression of the myostatin gene were studied in order to determine their modulation by a growth hormone or an ecdysone and to characterize these modulations from a statistical point of view. The C2C12 myoblast cells (ATCC CRL-1772) are seeded into 24-well plates at a density of 30 000 cells per well and cultured in a DMEM medium containing glucose in a proportion of 4.5 g/l and supplemented with fetal calf serum (10%) and with antibiotics (penicillin and streptomycin). Forty-eight hours later, the myoblasts are induced to differentiate by partial serum depletion (2% instead of 10%) for 5 days. The cells are then placed in a medium which is glucose-depleted (DMEM containing 1 g/l of glucose) and serum-free in the presence of the test molecules or of the references (100 ng/ml IGF-1 or 10 μ[…]) for 6 h. At the end of the experiment, the messenger RNAs (mRNAs) are extracted using the conventional methodology based on phenol and chloroform. Briefly, the cells are lysed in a Trizol solution (Sigma T9424) containing a strong acid and phenol. The mRNAs are separated from the proteins by addition of chloroform and then centrifugation. They are then precipitated from isopropanol and then suspended at a concentration of 1 μg/μl in an […] ultrapure water. 1 μg of mRNA is then converted by reverse transcription into complementary DNA by the AMV enzyme in the presence of a primer and of a mixture of nucleotides according to the protocol given by the supplier (Applied Biosystems 4368814). […] The qPCRs are carried out on a 7900HT Fast real-Time PCR detection system (Applied Biosystems). The programming conditions are standard and consist of 1 cycle at 95° C. for 15 min, followed by 40 cycles at 95° C. for 15 s and at 60° C. for 1 min and the program ends with a melt curve step between 60° C. and 95° C. […] Fluorescent probes bind to the double-stranded DNA and are fluorescent only once bound to the DNA. A fluorescence threshold is established by the machine's program. When the amount of DNA allows the fluorescent probe to exceed this threshold, a PCR cycle number, called “Ct” for “Cycle Threshold”, is obtained. It is this value which forms the basis of the calculations to quantify the DNA relatively. A ratio R is established between the amount of starting DNA of a sample and that of a control, which has not undergone treatment (i.e. […] R=2^-ΔΔCt).
row,Structure (SMILES),mrna remaining at 10 µM
1,"CO/N=C1\C=C2C(CC[C@]3(C)[C@@H](C(C)N(CC(F)F)C(=O)c4ccco4)CC[C@@]23O)[C@@]2(C)C[C@H](O)[C@H](O)C[C@@H]12 (stereo partly drawn) [Compound 37, N-(2,2-difluoroethyl)-N-[1-[(2S,3R,5R,6E,10R,13R,14S,17S)-2,3,14-trihydroxy-6-methoxyimino-10,13-dimethyl-2,3,4,5,9,11,12,15,16,17-decahydro-1H-cyclopenta[a]phenanthren-17-yl]ethyl]furan-2-carboxamide]",71 to 85%
2,"C/C(=N/OCCOc1ccccc1)[C@H]1CC=C2C3=CC(=O)[C@@H]4C[C@@H](O)[C@@H](O)C[C@]4(C)C3CC[C@@]21C (stereo partly drawn) [Compound 33, (2S,3R,5R,10R,13R,17S)-2,3-dihydroxy-10,13-dimethyl-17-(C-methyl-N-(2-phenoxyethoxy)carbonimidoyl)-1,2,3,4,5,9,11,12,16,17-decahydrocyclopenta[a]phenanthren-6-one]",< 70%
3,"C/C(=N/OCCN1CCCC1)[C@H]1CC[C@@]2(O)C3=CC(=O)[C@@H]4C[C@@H](O)[C@@H](O)C[C@]4(C)C3CC[C@]12C (stereo partly drawn) [Compound 36, (2S,3R,5R,10R,13R,14S,17S)-2,3,14-trihydroxy-10,13-dimethyl-17-(C-methyl-N-(2-pyrrolidin-1-ylethoxy)carbonimidoyl)-2,3,4,5,9,11,12,15,16,17-decahydro-1H-cyclopenta[a]phenanthren-6-one]",71 to 85%
4,"COC(CN(C)C(C)[C@H]1CC[C@@]2(O)C3=CC(=O)[C@@H]4C[C@@H](O)[C@@H](O)C[C@]4(C)C3CC[C@]12C)OC (stereo partly drawn) [Compound 79, (2S,3R,5R,10R,13R,14S,17S)-17-[1-(2,2-dimethoxyethyl(methyl)amino)ethyl]-2,3,14-trihydroxy-10,13-dimethyl-2,3,4,5,9,11,12,15,16,17-decahydro-1H-cyclopenta[a]phenanthren-6-one]",< 70%
5,"C/C(=N/OCCN(C)C)[C@H]1CC[C@@]2(O)C3=CC(=O)[C@@H]4C[C@@H](O)[C@@H](O)C[C@]4(C)C3CC[C@]12C (stereo partly drawn) [Compound 35, (2S,3R,5R,10R,13R,14S,17S)-17-(N-(2-dimethylaminoethoxy)-C-methylcarbonimidoyl)-2,3,14-trihydroxy-10,13-dimethyl-2,3,4,5,9,11,12,15,16,17-decahydro-1H-cyclopenta[a]phenanthren-6-one]",71 to 85%
6,"CO/N=C1\C=C2C(CC[C@]3(C)[C@@H](C(C)N(CC(OC)OC)C(=O)C(C)C)CC[C@@]23O)[C@@]2(C)C[C@H](O)[C@H](O)C[C@@H]12 (stereo partly drawn) [Compound 38, N-(2,2-dimethoxyethyl)-2-methyl-N-[1-[(2S,3R,5R,6E,10R,13R,14S,17S)-2,3,14-trihydroxy-6-methoxyimino-10,13-dimethyl-2,3,4,5,9,11,12,15,16,17-decahydro-1H-cyclopenta[a]phenanthren-17-yl]ethyl]propanamide]",< 70%
7,"C/C(=N/OCCOc1ccccc1)[C@H]1CC[C@@]2(O)C3=CC(=O)[C@@H]4C[C@@H](O)[C@@H](O)C[C@]4(C)C3CC[C@]12C (stereo partly drawn) [Compound 27, (2S,3R,5R,10R,13R,14S,17S)-2,3,14-trihydroxy-10,13-dimethyl-17-(C-methyl-N-(2-phenoxyethoxy)carbonimidoyl)-2,3,4,5,9,11,12,15,16,17-decahydro-1H-cyclopenta[a]phenanthren-6-one]",< 70%
8,"CC([C@H]1CC[C@@]2(O)C3=CC(=O)[C@@H]4C[C@@H](O)[C@@H](O)C[C@]4(C)C3CC[C@]12C)N(CC(F)F)C(=O)OC(C)(C)C (stereo partly drawn) [Compound 71, Tert-butyl N-(2,2-difluoroethyl)-N-[1-[(2S,3R,5R,10R,13R,14S,17S)-2,3,14-trihydroxy-10,13-dimethyl-6-oxo-2,3,4,5,9,11,12,15,16,17-decahydro-1H-cyclopenta[a]phenanthren-17-yl]ethyl]carbamate]",< 70%
9,"COCCON=C(C)[C@H]1CC[C@@]2(O)C3=C/C(=N\OC)[C@@H]4C[C@@H](O)[C@@H](O)C[C@]4(C)C3CC[C@]12C (stereo partly drawn) [Compound 19, (2S,3R,5R,6E,10R,13R,14S,17S)-17-(N-(2-methoxyethoxy)-C-methylcarbonimidoyl)-6-methoxyimino-10,13-dimethyl-2,3,4,5,9,11,12,15,16,17-decahydro-1H-cyclopenta[a]phenanthrene-2,3,14-triol]",71 to 85%
10,"C=CC(=O)N(CC1CCCO1)C(C)[C@H]1CC[C@@]2(O)C3=CC(=O)[C@@H]4C[C@@H](O)[C@@H](O)C[C@]4(C)C3CC[C@]12C (stereo partly drawn) [Compound 48, N-(tetrahydrofuran-2-ylmethyl)-N-[1-[(2S,3R,5R,10R,13R,14S,17S)-2,3,14-trihydroxy-10,13-dimethyl-6-oxo-2,3,4,5,9,11,12,15,16,17-decahydro-1H-cyclopenta[a]phenanthren-17-yl]ethyl]prop-2-enamide]",71 to 85%
11,"CC([C@H]1CC[C@@]2(O)C3=CC(=O)[C@@H]4C[C@@H](O)[C@@H](O)C[C@]4(C)C3CC[C@]12C)N(CC1CCCO1)C(=O)C1CC1 (stereo partly drawn) [Compound 47, N-(tetrahydrofuran-2-ylmethyl)-N-[1-[(2S,3R,5R,10R,13R,14S,17S)-2,3,14-trihydroxy-10,13-dimethyl-6-oxo-2,3,4,5,9,11,12,15,16,17-decahydro-1H-cyclopenta[a]phenanthren-17-yl]ethyl]cyclopropanecarboxamide]",< 70%
12,"COC(CN(C)CC(=O)[C@H]1CC[C@@]2(O)C3=CC(=O)[C@@H]4C[C@@H](O)[C@@H](O)C[C@]4(C)C3CC[C@]12C)OC (stereo partly drawn) [Compound 85, (2S,3R,5R,10R,13R,14S,17S)-17-[2-(2,2-dimethoxyethyl(methyl)amino)acetyl]-2,3,14-trihydroxy-10,13-dimethyl-2,3,4,5,9,11,12,15,16,17-decahydro-1H-cyclopenta[a]phenanthren-6-one]",71 to 85%
13,"CC(C)=CCON=C(C)[C@H]1CC[C@@]2(O)C3=C/C(=N\O)[C@@H]4C[C@@H](O)[C@@H](O)C[C@]4(C)C3CC[C@]12C (stereo partly drawn) [Compound 21, (2S,3R,5R,10R,13R,14S,17S)-2,3,14-trihydroxy-10,13-dimethyl-17-(C-methyl-N-(3-methylbut-2-enoxy)carbonimidoyl)-2,3,4,5,9,11,12,15,16,17-decahydro-1H-cyclopenta[a]phenanthren-6-one oxime]",< 70%
14,"CCO/N=C(/C)[C@H]1CC[C@@]2(O)C3=CC(=O)[C@@H]4C[C@@H](O)[C@@H](O)C[C@]4(C)C3CC[C@]12C (stereo partly drawn) [Compound 23, (2S,3R,5R,10R,13R,14S,17S)-17-(N-ethoxy-C-methylcarbonimidoyl)-2,3,14-trihydroxy-10,13-dimethyl-2,3,4,5,9,11,12,15,16,17-decahydro-1H-cyclopenta[a]phenanthren-6-one]",71 to 85%
15,"CC([C@H]1CC[C@@]2(O)C3=CC(=O)[C@@H]4C[C@@H](O)[C@@H](O)C[C@]4(C)C3CC[C@]12C)N(C(=O)c1ccc(C#N)cc1)C1CC1 (stereo partly drawn) [Compound 56, 4-cyano-N-cyclopropyl-N-[1-[(2S,3R,5R,10R,13R,14S,17S)-2,3,14-trihydroxy-10,13-dimethyl-6-oxo-2,3,4,5,9,11,12,15,16,17-decahydro-1H-cyclopenta[a]phenanthren-17-yl]ethyl]benzamide]",71 to 85%
